Test results published in PubChem BioAssay (NCI).
Values joined by “and” are separate entries in the source; they are usually repeats but may differ in a detail not shown here. Equal values may be shown once.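 96-well plates; 48 h exposure; 5 concentrations. Endpoints by linear interpolation between flanking doses. Not reached: highest tested concentration assigned. GI50: concentration for 50% inhibition of growth. TGI marks complete inhibition of growth.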

Experiments:
Assay in all cases: growth of human tumour cells (NCI), 48 h
[1] = test system: SW-620 colon
[2] = test system: A549 NSCLC
[3] = test system: MDA-MB-231 breast
[4] = test system: CCRF-CEM leukemia
[5] = test system: 786-0 renal
[6] = test system: SK-MEL-28 melanoma
[7] = test system: OVCAR-8 ovarian
[8] = test system: K-562 leukemia
[9] = test system: PC-3 prostate
[10] = test system: UO-31 renal

| Structure (SMILES) | GI50 [1] [µM] | TGI [1] | GI50 [2] [µM] | TGI [2] | TGI [3] [µM] | GI50 [4] [µM] | TGI [4] | TGI [5] [µM] | GI50 [6] [µM] | TGI [6] | GI50 [7] [µM] | TGI [7] | GI50 [8] [µM] | TGI [8] | TGI [9] [µM] | GI50 [10] [µM] | TGI [10] | GI50 [3] [µM] | GI50 [5] [µM] | GI50 [9] [µM] |
| --- | --- | --- | --- | --- | --- | --- | --- | --- | --- | --- | --- | --- | --- | --- | --- | --- | --- | --- | --- | --- |
| O=C(Nc1ccccc1)c1c(O)[nH]c(=S)[nH]c1=O | 74.4 | 97.7 µM and > 250 µM | 36.7 | 82.6 µM and 147 µM | 94 | 71.2 | 83.3 µM and > 250 µM | 92.1 | 127 | 124 µM and > 250 µM | 41.3 | 76.7 µM and > 250 µM | 85.3 | 114 µM and > 250 µM | 85.2 | 65.4 | 65.9 µM and 174 µM | – | – | – |
| CC1CCc2nc[nH]c(=O)c21 (configuration not stated) | > 100 | > 100 µM | > 100 | > 100 µM | > 100 | > 100 | > 100 µM | > 100 | > 100 | > 100 µM | > 100 | > 100 µM | > 100 | > 100 µM | > 100 | > 100 | > 100 µM | > 100 | > 100 | > 100 |
| Cn1cc(C2=C(c3c4n(c5ccccc35)CCCCC4)C(=O)NC2=O)c2ccccc21 | 2.19 | > 25 µM | 3.72 | > 25 µM | > 25 | 5.21 | > 22.7 µM | > 25 | 12.6 | > 25 µM | 10.7 | > 25 µM | 1.38 | > 25 µM | > 25 | 5.75 | > 25 µM | 6.42 | 7.76 | 3.2 |
| Nc1nc(-n2c(-c3ccccc3)nc3c(Br)cc(Br)cc3c2=O)nnc1-c1cccc(Cl)c1Cl | 5.15 | > 100 µM | 7.41 | > 100 µM | 18.3 | 5.33 | > 100 µM | 60.7 | > 100 | > 100 µM | 17.2 | > 100 µM | 4.7 | 7.66 µM | > 100 | 40.2 | > 100 µM | 4.22 | 11.2 | 26.6 |
| CN1CCCCC1CCN1c2ccccc2Sc2ccc(Cl)cc21 (configuration not stated) | 2.87 | 10.1 µM | 3.31 | 11.8 µM | 6.32 | 3.81 | 13.5 µM | 14.5 | 2.23 | 5.9 µM | 3.83 | 12.5 µM | 2.6 | 7.57 µM | 11.7 | 2.92 | 12.7 µM | 2.09 | 3.85 | 3.22 |
| COc1ccc2c(c1)sc1nc(-c3ccccc3)c(-c3cccc4ccccc34)n12 | 0.346 | > 100 µM | 0.816 | > 100 µM | > 100 | 0.45 | > 100 µM | > 100 | 0.417 | > 100 µM | 0.771 | > 100 µM | 0.328 | > 100 µM | > 100 | 1.34 | > 100 µM | 1.32 | 0.848 | 0.5 |
| C=CCOc1ccc2c(C)cc(=O)oc2c1C | – | > 100 µM | – | > 100 µM | > 100 | – | > 100 µM | > 100 | – | > 100 µM | – | > 100 µM | – | > 100 µM | > 100 | – | > 100 µM | – | – | – |
| CC(C)=CCC\C(C)=C/C=C/C(C)=C\C=C\C(C)=C/C=C/C=C(C)\C=C\C=C(C)/C=C/C=C(/C)CCC=C(C)C | – | > 100 µM | – | > 100 µM | > 100 | – | > 100 µM | > 100 | – | > 100 µM | – | > 100 µM | – | > 100 µM | > 100 | – | > 100 µM | – | – | – |
| COc1cc2c(c3oc4c(O)cccc4c(=O)c13)CC(C(C)(O)CO)O2 (configuration not stated) | – | > 100 µM | – | > 100 µM | > 100 | – | > 100 µM | > 100 | – | > 100 µM | – | > 100 µM | – | > 100 µM | > 100 | – | > 100 µM | – | – | – |
